Literature values, collected in patent publication US20130142872A1, “EMP2: Ethyl-Methyl, di Methyl, tri Methyl Pyruvate Acid Esters: A Tool for Regulating HbA1c and a Riboswitch Activator” (priority 2011, published 2013).

Assays:
[1] = after coronary ischemia and reperfusion
[2] = wide variety of preclinical models of critical illnesses
[3] = clinically prescribed / clinically relevant doses
[4] = system: Mouse neuron and astrocyte cultures; conditions: for NAD(+) depletion: PARP1 activation by MNNG or H(2)O(2); for poly(ADP-ribose) accumulation: during MNNG exposure, immunostaining; for cell death: hydrogen peroxide, NMDA or MNNG exposure
[5] = system: Cultured mouse astrocytes; conditions: for cell death / translocation of the apoptosis-inducing factor from mitochondria to nuclei: after PARP-1 activation
B-islet pancreatic cell = conditions: as compared to its glucose control
THP-1 monocytic cells = conditions: PMA-stimulated THP-1 cells
[6] = system: primary astrocyte cultures; conditions: 10 mM extracellular NAD(+) after MNNG exposure

CCOC(=O)C(C)=O [Ethyl pyruvate, ethyl pyruvate]
cardiac function [1]: improve cardiac function | survival and organ dysfunction [2]: improve survival and ameliorate organ dysfunction | safety in human volunteers [3]: safe

NC(=O)c1ccccc1 [benzamide]
NAD(+) depletion [4]: prevented | poly(ADP-ribose) accumulation [4]: decrease | cell death [4]: markedly reduced

cyclosporin A
cell death [5]: blocked | translocation of the apoptosis-inducing factor from mitochondria to nuclei [5]: blocked

COC(=O)C(C)=O [Methyl pyruvate]
increase in insulin production (B-islet pancreatic cell): six-fold | safety in human volunteers [3]: safe

CCCCC/C=C/C=C1/C(=O)C=CC1C/C=C\CCCC(=O)O (stereo not drawn) [PGJ2, 15-deoxy-Delta(12, 14)-PGJ2]
IL-1, IL-6 and TNFalpha (pro-inflammatory cytokine) secretion (THP-1 monocytic cells): inhibitory effect | IL-1Ra production (THP-1 monocytic cells): increasing

O=C(OC[C@H]1O[C@@H](OC(=O)c2cc(O)c(O)c(OC(=O)c3cc(O)c(O)c(O)c3)c2)[C@H](OC(=O)c2cc(O)c(O)c(OC(=O)c3cc(O)c(O)c(O)c3)c2)[C@@H](OC(=O)c2cc(O)c(O)c(OC(=O)c3cc(O)c(O)c(O)c3)c2)[C@@H]1OC(=O)c1cc(O)c(O)c(OC(=O)c2cc(O)c(O)c(O)c2)c1)c1cc(O)c(O)c(OC(=O)c2cc(O)c(O)c(O)c2)c1 [gallotannin]
NAD(+) depletion [4]: prevented | poly(ADP-ribose) accumulation [4]: increase | cell death [4]: equally reduced

nobotanin B
cell death [4]: equally reduced

NC(=O)c1ccc[n+]([C@@H]2O[C@H](COP(=O)([O-])OP(=O)(O)OC[C@H]3O[C@@H](n4cnc5c(N)ncnc54)[C@H](O)[C@@H]3O)[C@@H](O)[C@H]2O)c1 [NAD(+)]
cell death [6]: prevented | glycolytic capacity [6]: completely restored | mitochondrial membrane potential ([5]; NAD(+) restored to near-normal levels after PARP-1 activation): enabled the recovery | cell death [5]: blocked | translocation of the apoptosis-inducing factor from mitochondria to nuclei [5]: blocked
